Data taken from ChEMBL document CHEMBL5226370, “Selective Inhibition of Organic Cation Transporter 1 by Benzoylpaeoniflorin Attenuates Hepatic Lipid Accumulation through AMPK Activation” (J Nat Prod, 2023).
The source made the active and inactive calls. The calls are words filed in the database; no cut-off is given here.

Key:
OCT1 (SLC22A1) = biological target: T1, OCT1 (SLC22A1) (Homo sapiens, UniProt O15245); assay: Inhibition of OCT1(unknown origin)-mediated ASP+ uptake in HEK293 cells expressing OCT1 using ASP+ as substrate at 50 uM incubated for 5 mins by fluorescence based microplate reader analysis relative to control; assay type: cell-based; conditions: HEK293 cells expressing OCT1, probe ASP+
T1 sequence (O15245 whole entry): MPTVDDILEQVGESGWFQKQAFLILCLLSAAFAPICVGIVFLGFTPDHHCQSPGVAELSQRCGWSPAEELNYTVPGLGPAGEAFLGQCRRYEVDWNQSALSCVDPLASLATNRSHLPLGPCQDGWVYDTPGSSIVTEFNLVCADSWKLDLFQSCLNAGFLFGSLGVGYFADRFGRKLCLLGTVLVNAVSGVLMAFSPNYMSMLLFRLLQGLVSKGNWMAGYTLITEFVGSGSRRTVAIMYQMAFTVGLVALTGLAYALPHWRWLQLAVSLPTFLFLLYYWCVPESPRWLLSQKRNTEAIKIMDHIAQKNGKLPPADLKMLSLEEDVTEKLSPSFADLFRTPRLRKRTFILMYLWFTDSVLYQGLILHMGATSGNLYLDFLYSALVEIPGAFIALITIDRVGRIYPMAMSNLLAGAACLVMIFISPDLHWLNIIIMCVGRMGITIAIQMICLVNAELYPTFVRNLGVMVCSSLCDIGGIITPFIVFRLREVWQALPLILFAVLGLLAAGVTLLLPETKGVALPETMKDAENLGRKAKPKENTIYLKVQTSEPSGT

HEK293 [1] = assay: Cytotoxicity against HEK293 cells harboring empty vector assessed as reduction in cell viability at 250 uM incubated for 12 hrs by resazurin dye based assay; assay type: toxicity; conditions: human, hek293, 12 h
HEK293 [2] = assay: Cytotoxicity against HEK293 cells expressing OCT1 assessed as reduction in cell viability at 250 uM incubated for 12 hrs by resazurin dye based assay; assay type: toxicity; conditions: human, hek293, 12 h
HEK293 [3] = assay: Cytotoxicity against HEK293 cells expressing OCT2 assessed as reduction in cell viability at 250 uM incubated for 12 hrs by resazurin dye based assay; assay type: toxicity; conditions: human, hek293, 12 h
[4] = biological target: T2, Solute carrier family 22 member 1 (Homo sapiens, UniProt O15245); assay: Inhibition of OCT1(unknown origin)-mediated ASP+ uptake in HEK293 cells expressing OCT1 using ASP+ as substrate incubated for 5 mins; assay type: cell-based
T2 sequence (O15245 whole entry): T1 sequence (O15245 whole entry)

[5] = biological target: T3, Solute carrier family 22 member 2 (Homo sapiens, UniProt O15244); assay: Inhibition of OCT2(unknown origin)-mediated ASP+ uptake in HEK293 cells expressing OCT2 using ASP+ as substrate incubated for 5 mins; assay type: cell-based
T3 sequence (O15244 whole entry): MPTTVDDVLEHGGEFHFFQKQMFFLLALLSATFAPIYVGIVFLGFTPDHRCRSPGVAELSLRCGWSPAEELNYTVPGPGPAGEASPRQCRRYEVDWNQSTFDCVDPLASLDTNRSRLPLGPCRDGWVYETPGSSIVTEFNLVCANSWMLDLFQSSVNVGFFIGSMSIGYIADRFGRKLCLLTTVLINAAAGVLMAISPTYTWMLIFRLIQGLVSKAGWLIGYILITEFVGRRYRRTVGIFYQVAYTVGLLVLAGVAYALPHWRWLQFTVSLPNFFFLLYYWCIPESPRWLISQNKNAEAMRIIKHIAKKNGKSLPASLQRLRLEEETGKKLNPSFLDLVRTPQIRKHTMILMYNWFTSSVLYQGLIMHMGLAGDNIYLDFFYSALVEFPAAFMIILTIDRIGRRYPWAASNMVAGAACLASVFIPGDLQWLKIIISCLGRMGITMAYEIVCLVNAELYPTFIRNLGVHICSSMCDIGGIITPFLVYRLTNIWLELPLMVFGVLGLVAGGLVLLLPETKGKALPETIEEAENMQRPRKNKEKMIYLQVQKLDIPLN

HEK293 [6] = assay: Selectivity index, ratio of IC50 for inhibition of OCT2(unknown origin)-mediated ASP+ uptake in HEK293 cells expressing OCT2 to IC50 for inhibition of OCT1(unknown origin)-mediated ASP+ uptake in HEK293 cells expressing OCT1; assay type: cell-based; conditions: Homo sapiens
[7] = Activation of AMPK signalling pathway in human L02 cells expressing OCT1 assessed as increase in AMPK phosphorylation at 2.5 to 10 uM incubated for 1 to 24 hrs by Western blot analysis; assay type: cell-based; conditions: filed as activator, dose 2.5-10 µM, time 1-24 hrs
[8] = Activation of AMPK signalling pathway in human HepG2 cells expressing OCT1 assessed as increase in AMPK phosphorylation at 2.5 to 10 uM incubated for 1 to 24 hrs by Western blot analysis; assay type: cell-based; conditions: filed as activator, dose 2.5-10 µM, time 1-24 hrs
[9] = Activation of AMPK signalling pathway in human L02 cells expressing OCT1 assessed as decrease in FASN mRNA expression at 2.5 to 10 uM incubated for 1 to 24 hrs by qRT-PCR analysis; assay type: cell-based; conditions: filed as activator, dose 2.5-10 µM, time 1-24 hrs
[10] = Activation of AMPK signalling pathway in human L02 cells expressing OCT1 assessed as decrease in ACC mRNA expression at 2.5 to 10 uM incubated for 1 to 24 hrs by qRT-PCR analysis; assay type: cell-based; conditions: filed as activator, dose 2.5-10 µM, time 1-24 hrs
[11] = Activation of AMPK signalling pathway in human HepG2 cells expressing OCT1 assessed as decrease in FASN mRNA expression at 2.5 to 10 uM incubated for 1 to 24 hrs by qRT-PCR analysis; assay type: cell-based; conditions: filed as activator, dose 2.5-10 µM, time 1-24 hrs
[12] = Activation of AMPK signalling pathway in human HepG2 cells expressing OCT1 assessed as decrease in ACC mRNA expression at 2.5 to 10 uM incubated for 1 to 24 hrs by qRT-PCR analysis; assay type: cell-based; conditions: filed as activator, dose 2.5-10 µM, time 1-24 hrs
L02 [13] = assay: Inhibition of FFA-induced lipid accumulation in human L02 cells expressing OCT1 at 10 uM incubated for 24 hrs by Oil Red O staining based microscopic analysis; assay type: functional, cell-based
HepG2 [14] = assay: Inhibition of FFA-induced lipid accumulation in human HepG2 cells expressing OCT1 at 10 uM incubated for 24 hrs by Oil Red O staining based microscopic analysis; assay type: functional, cell-based
L02 [15] = assay: Inhibition of FFA-induced lipid accumulation in human L02 cells expressing OCT1 assessed as decrease in triglyceride level at 10 uM incubated for 24 hrs; assay type: functional, cell-based
HepG2 [16] = assay: Inhibition of FFA-induced lipid accumulation in human HepG2 cells expressing OCT1 assessed as decrease in triglyceride level at 10 uM incubated for 24 hrs; assay type: functional, cell-based

inhibition at 5 min, 50 µM (OCT1 (SLC22A1)) [%]	IC50 [4] [µM]	IC50 [5] [µM]	SMILES	Activity (HEK293 [1])	Activity (HEK293 [2])	Activity (HEK293 [3])	Ratio IC50 (HEK293 [6])	Activity [7]	Activity [8]	Activity [9]	Activity [10]	Activity [11]	Activity [12]	inhibition (L02 [13])	inhibition (HepG2 [14])	inhibition (L02 [15])	inhibition (HepG2 [16])
–	28	1620	CNC(=C[N+](=O)[O-])NCCSCc1ccc(CN(C)C)o1 [RANITIDINE]	–	–	–	39.6	–	–	–	–	–	–	–	–	–	–
–	39.6	45.9	NC12CC3CC(CC(C3)C1)C2 [AMANTADINE]	–	–	–	1.16	–	–	–	–	–	–	–	–	–	–
> 50	11.2	56.5	CC(C)=CCc1c(O)cc(O)c2c(=O)c(O[C@@H]3O[C@@H](C)[C@H](O)[C@@H](O)[C@H]3O[C@@H]3O[C@H](CO)[C@@H](O)[C@H](O)[C@H]3O)c(-c3ccc(O)cc3)oc12	Non-Toxic	Non-Toxic	Non-Toxic	–	–	–	–	–	–	–	–	–	–	–
> 50	38.4	17.3	COc1cc(O)c2c(c1)oc(=O)c1c3cc(O)c(O)cc3oc21 [WEDELOLACTONE]	Non-Toxic	Non-Toxic	Non-Toxic	–	–	–	–	–	–	–	–	–	–	–
> 50	40.2	33.1	CC(C)=CCc1cc(-c2cc(=O)c3c(O)cc(O)c(CC=C(C)C)c3o2)cc(O)c1O	Non-Toxic	Non-Toxic	Non-Toxic	–	–	–	–	–	–	–	–	–	–	–
> 50	47.3	1270	C/C=C1\C2CC(=O)OC[C@@H](c3ccc(O)c(O)c3)OC[C@H]3O[C@@H](O[C@@H]1OC=C2C(=O)OC)[C@H](O)[C@@H](O)[C@@H]3O	Non-Toxic	Non-Toxic	Non-Toxic	–	–	–	–	–	–	–	–	–	–	–
> 50	35.2	69.5	C[C@H]1O[C@@H](O[C@H]2CC[C@@]3(C)[C@@H](CC[C@]4(C)[C@@H]3C=CC3=C5CC(C)(C)CC[C@]5(CO)[C@@H](O)C[C@]34C)[C@]2(C)CO)[C@H](O)[C@@H](O[C@@H]2O[C@H](CO)[C@@H](O)[C@H](O)[C@H]2O)[C@H]1O	Non-Toxic	Non-Toxic	Non-Toxic	–	–	–	–	–	–	–	–	–	–	–
> 50	3.46	4120	C[C@@]12C[C@@]3(O)O[C@@H](O1)[C@]1(COC(=O)c4ccccc4)[C@H]3C[C@@]12O[C@@H]1O[C@H](COC(=O)c2ccccc2)[C@@H](O)[C@H](O)[C@H]1O	Non-Toxic	Non-Toxic	Non-Toxic	> 1000	Active	Active	Active	Active	Active	Active	Active	Active	Active	Active
> 50	38.9	30.9	O=c1cc(-c2ccc(O)cc2)oc2cc(O)cc(O)c12 [APIGENIN]	Non-Toxic	Non-Toxic	Non-Toxic	–	–	–	–	–	–	–	–	–	–	–

SMILES	inhibition at 5 min, 50 µM (OCT1 (SLC22A1)) [%]	IC50 [4] [µM]	IC50 [5] [µM]	Activity (HEK293 [1])	Activity (HEK293 [2])	Activity (HEK293 [3])	Ratio IC50 (HEK293 [6])	Activity [7]	Activity [8]	Activity [9]	Activity [10]	Activity [11]	Activity [12]	inhibition (L02 [13])	inhibition (HepG2 [14])	inhibition (L02 [15])	inhibition (HepG2 [16])
O=c1cc(-c2ccc(O)c(O)c2)oc2cc(O)cc(O)c12 [LUTEOLIN]	> 50	46.1	41	Non-Toxic	Non-Toxic	Non-Toxic	–	–	–	–	–	–	–	–	–	–	–
C[C@@H]1CC[C@@]2(OC1)O[C@H]1C[C@H]3[C@@H]4CC=C5C[C@@H](O)C[C@@H](O[C@@H]6O[C@H](C)[C@H](O)[C@H](O[C@@H]7OC[C@@H](O)[C@H](O)[C@H]7O)[C@H]6O[C@@H]6O[C@@H](C)[C@H](O)[C@@H](O)[C@H]6O)[C@]5(C)[C@H]4CC[C@]3(C)[C@H]1[C@@H]2C	> 50	41.3	19.1	Non-Toxic	Non-Toxic	Non-Toxic	–	–	–	–	–	–	–	–	–	–	–
COc1ccc(-c2oc3cc(OC)cc(OC)c3c(=O)c2OC)cc1 [TETRAMETHYLKAEMPFEROL]	> 50	47	39.5	Non-Toxic	Non-Toxic	Non-Toxic	–	–	–	–	–	–	–	–	–	–	–
